In PMC6851324, “Design and development of stapled transmembrane peptides that disrupt the activity of G-protein–coupled receptor oligomers” (The Journal of Biological Chemistry, 2019):
Read-outs that look alike come from different tables or passages of the source. Where a SMILES comes first, the peptide text is derived from it. Bridges are numbered along the chain shown (N, C = ends). [ ]: non-standard residue; d: D form. S5 = C=CCCC[C@](C)(N)C(=O)O; Nle = CCCC[C@H](N)C(=O)O

Key:
5-HT2AR–CB1R heteromers = biological target: T1, 5-HT2AR–CB1R heteromers (Homo sapiens, UniProt P28223); assay: NanoBiT BiLC peptide screening assay (LgBiT–CB1R + SmBiT–5-HT2AR); format: cell-based; conditions: HEK293 cells transiently expressing LgBiT–CB1R and SmBiT–5-HT2AR, preincubated 1 h with 4 μM peptide, luminescence normalized to vehicle, n ≥ 5
T1 construct: expressed in transfected cells; host or cells: HEK293 (ATCC CRL-1573), transient reverse transfection
Method: Figure 5. Identification of a small-stapled TM peptide disrupting 5-HT2AR–CB1R heteromers. A, schematic representation of the NanoBiT assay using N-terminally labeled constructs. In B, HEK293 cells transiently expressing the LgBT–CB1R and SmBiT–5-HT2AR complementary pairs were preincubated for 1 h at 37 °C with the indicated peptides (4 μM) or vehicle prior to luminescence recording. Data are mean RLU ± S.E. (error bars) (n ≥ 5) percentage of luminescence normalized to vehicle-treated cells. Statistical significance was evaluated by one-way ANOVA followed by Bonferroni post hoc tests, indicating significant differences over vehicle-treated cells (***, p ≤ 0.001; ****, p ≤ 0.0001) and for peptide 10 over its related peptides (####, p ≤ 0.0001). Peptide 10 potency (C) was evaluated as in A over increasing peptide concentrations (bottom) (n = 3). Alternatively, to assess the kinetics of the peptide 10–driven heteromer disruption (D), prior to the administration of the peptide, the cells were preincubated with substrate, and the luminescence was recorded over the following 30 min. Data are mean RLU ± S.E. (n ≥ 3) percentage of luminescence normalized to vehicle-treated cells.
To assess GPCR protein–protein interactions with the NanoBiT technology, HEK293 cells (50,000 cells/well) were seeded in poly-D-lysine–coated white clear bottom 96-well plates and reverse-transfected (see above) with the plasmids encoding the complementary NanoBiT hemiprotein fragments. For orientation screenings, cells were transfected with two different concentrations (50 and 100 ng/well) of each receptor alone or in combination with the investigated partner (see figure legends) in the presence of empty vector (pcDNA3.1(+)) to normalize the total amount of DNA/well. For studies in the presence of increasing nontagged receptor competitors, 100 ng of each receptor pair (CB1R LgBiT + CB1R SmBiT, 5-HT2AR LgBiT + 5-HT2AR SmBiT, and 5-HT2AR LgBiT + CB1R SmBiT) were co-transfected with increasing concentrations of the different nontagged constructs (from 0 to 300 ng/well), and the total amounts of DNA/well were normalized with empty vector (pcDNA3.1(+)). For the screening of stapled peptides, 50 ng/well of both LgBiT CB1R and SmBiT 5-HT2AR were reverse-transfected as detailed previously. 24 h post- transfection, the cell culture medium was removed, and the cells were starved in FBS-free DMEM for 4 h at 37 °C in a 5% CO2 humidified atmosphere. The cell culture medium was replaced by 100 μl of NanoBiT assay buffer (same as for cAMP measurements), and the plates were pre-equilibrated for 1 h at RT in the dark. When peptide pretreatment was required, peptides were added over this pre-equilibration step, except when studying inhibition kinetics, when the peptides were administered immediately after the baseline luminescence recording. 25 μl/well of a 5× solution of the Nano-Glo® live cell reagent containing the cell-permeable furimazine substrate dissolved in Nano-Glo® LCS dilution buffer were added, and the luminescence was immediately monitored in CLARIOstar® Multimode Plate Reader (BMG Labtech) with no lens (1-s integration time/well for 1 h every minute).
(§1) Dose–response curves were fitted using a four-parameter logistic nonlinear regression mode. Peptide stability data were fitted using a nonlinear regression mode for dissociation kinetics. All statistical tests, curve fitting, and graphing were performed using GraphPad Prism 8 (GraphPad Software, La Jolla, CA).

[1] = biological target: T2, trypsin from porcine pancreas (Sus scrofa, UniProt P00761); assay: Proteolytic stability against trypsin; format: in vitro ADME; conditions: for half-life at 55.5 μM: pig, isolated enzyme trypsin
T2 construct: purchased Sigma; host or cells: porcine pancreas
Method: (§2) Figure 4. Biophysical analysis of stapled peptides. A, amino acid sequence alignment of the targeted TM regions and disrupting peptides. Cys residues are in the reduced state. Blue bridges indicate the stapled amino acid residues. […] Yields, purity, and MALDI-TOF data are shown for the stapled peptides and negative control. B, CD analysis of 30–50 μM peptides at 20 °C. For proteolytic stability studies, the peptide solution (55.5 μM for trypsin and chymotrypsin and 11.1 μM for serum) was incubated in the presence of 0.55 μg/ml trypsin from porcine pancreas (E), α-chymotrypsin (F), or mouse serum (G) at 37 °C for the indicated times (indicated on the x axis). Data are mean ± S.E. (error bars) (n = 3) percentage of intact peptide normalized to t = 0. Proteolytic half-lives and putative cleavage sites (predicted using the Expasy bioinformatics server's model with a 50% probability of cleavage) are indicated at the bottom of each panel. Positive correlation between helicity and half-life in trypsin/chymotrypsin (C) or serum (D) was determined by two-tailed Pearson's correlation test. TEXT PRINTED IN THE PICTURE: (B) TM7-TAT: Ellipticity (%): 3.4 | (B) TM6-TAT: Ellipticity (%): 18.3 | (B) TM5-TAT: Ellipticity (%): 20.9 | (B) 8: Ellipticity (%): 58.3 | (B) 9: Ellipticity (%): 46.4 | (B) 10: Ellipticity (%): 36.8 | (B) 11: Ellipticity (%): 46 | (E) TM7-TAT: Half-life (min): 21; #Cleavage sites: 8 | (E) TM6-TAT: Half-life (min): 40; #Cleavage sites: 7 | (E) TM5-TAT: Half-life (min): 33; #Cleavage sites: 8 | (E) 8: Half-life (min): 307; #Cleavage sites: 0 | (E) 9: Half-life (min): 178; #Cleavage sites: 0 | (E) 10: Half-life (min): 75; #Cleavage sites: 6 | (E) 11: Half-life (min): 84; #Cleavage sites: 0 | (F) TM7-TAT: Half-life (min): 22; #Cleavage sites: 6 | (F) TM6-TAT: Half-life (min): 32; #Cleavage sites: 7 | (F) TM5-TAT: Half-life (min): 28; #Cleavage sites: 7 | (F) 8: Half-life (min): 425; #Cleavage sites: 4 | (F) 9: Half-life (min): 198; #Cleavage sites: 3 | (F) 10: Half-life (min): 63; #Cleavage sites: 2 | (F) 11: Half-life (min): 79; #Cleavage sites: 4 | (G) TM7-TAT: Half-life (hours): 0.46 | (G) TM6-TAT: Half-life (hours): 0.55 | (G) TM5-TAT: Half-life (hours): 0.81 | (G) 8: Half-life (hours): ≥18 | (G) 9: Half-life (hours): 14.7 | (G) 10: Half-life (hours): 11.7 | (G) 11: Half-life (hours): 5.3 DOUBTS OF THE COPYIST ABOUT THIS PICTURE: Panel A table (Yield, Rt, Purity, [M+H+] calc., [M+H+] Peak Found for 7-11) left out as synthesis and mass-spectrum characterisation data; uncertain whether [M+H+] calc. should count as a molecular weight
as §1
To 100 μl of peptide solution (100 μM, dissolved in ammonium bicarbonate buffer, pH 7.5), 60 μl of ammonium bicarbonate buffer (pH 7.5) was added, together with 20 μl of temperature-equilibrated (37 ± 1 °C) trypsin (5 μg/ml) from porcine pancreas (Sigma, 13,000–20,000 BAEE units/mg of protein). Peptides were incubated for 15, 30, 60, 120, 240, and 480 min, and then MeOH (HPLC Grade) + 0.05% TFA was added. The samples were then centrifuged (15,000 rpm), and the supernatant was analyzed, using Fmoc-Gly (10 μl, 0.2 mM) as an internal standard. The digestion at each time point was repeated three times to give the average values along with S.D. The amount of intact peptide that remained in the mixture was quantified by RP-HPLC. The experiment was repeated twice on different days.

[2] = biological target: T3, α-chymotrypsin from bovine pancreas (Bos taurus, UniProt P00766, DEL14-15/DEL147-148); assay: Proteolytic stability against chymotrypsin; format: in vitro ADME; conditions: for half-life at 55.5 μM: cattle, isolated enzyme chymotrypsin
T3 construct: purchased Sigma Type II; host or cells: bovine pancreas
Method: as §2, §1
To 100 μl of peptide solution (100 μM, dissolved in ammonium bicarbonate buffer, pH 7.5), 60 μl of ammonium bicarbonate buffer (pH 7.5) was added, together with 20 μl of temperature-equilibrated (37 ± 1 °C) α-chymotrypsin (5 μg/ml) from bovine pancreas (Sigma, Type II, activity > 40 units/mg protein). Peptides were incubated for 15, 30, 60, 120, 240, and 480 min, and then MeOH (HPLC grade) + 0.05% TFA was added. The samples were then centrifuged (15,000 rpm), and supernatant was analyzed in a similar manner as described above. The experiment was repeated twice on different days.

Stability in mouse serum = format: in vitro ADME; conditions: 11.1 μM peptide, fresh nonsterile mouse serum (200 μl serum + 25 μl peptide solution, pH 7.5 buffer with 10% DMSO), 37 °C, quench 15% TCA in acetonitrile, HPLC, n = 3; read-out: Half-life (hours), mouse serum (converted)
Method: as §2, §1
To 200 μl of fresh nonsterile mouse serum was added 25 μl of peptide solution (100 μM, dissolved in ammonium bicarbonate buffer, pH 7.5, containing 10% DMSO), and the mixture was incubated at 37 °C. At the specified time, an aliquot of incubation mixture was withdrawn and quenched by the addition of an equal volume of 15% TCA in acetonitrile to precipitate out serum proteins over ice for 30 min. The mixture was then centrifuged at 13,500 rpm for 10 min, and the supernatant was collected and analyzed by HPLC in a similar manner as described previously. The experiment was repeated twice on different days.

T2 sequence (P00761 9-231): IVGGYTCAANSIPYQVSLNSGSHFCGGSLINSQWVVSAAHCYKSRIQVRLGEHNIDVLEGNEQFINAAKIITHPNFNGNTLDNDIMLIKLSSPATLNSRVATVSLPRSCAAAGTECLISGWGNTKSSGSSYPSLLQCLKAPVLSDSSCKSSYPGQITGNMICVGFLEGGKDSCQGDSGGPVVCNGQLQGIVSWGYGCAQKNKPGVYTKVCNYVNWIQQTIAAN
T1 sequence (P28223 2-471, one chain of several): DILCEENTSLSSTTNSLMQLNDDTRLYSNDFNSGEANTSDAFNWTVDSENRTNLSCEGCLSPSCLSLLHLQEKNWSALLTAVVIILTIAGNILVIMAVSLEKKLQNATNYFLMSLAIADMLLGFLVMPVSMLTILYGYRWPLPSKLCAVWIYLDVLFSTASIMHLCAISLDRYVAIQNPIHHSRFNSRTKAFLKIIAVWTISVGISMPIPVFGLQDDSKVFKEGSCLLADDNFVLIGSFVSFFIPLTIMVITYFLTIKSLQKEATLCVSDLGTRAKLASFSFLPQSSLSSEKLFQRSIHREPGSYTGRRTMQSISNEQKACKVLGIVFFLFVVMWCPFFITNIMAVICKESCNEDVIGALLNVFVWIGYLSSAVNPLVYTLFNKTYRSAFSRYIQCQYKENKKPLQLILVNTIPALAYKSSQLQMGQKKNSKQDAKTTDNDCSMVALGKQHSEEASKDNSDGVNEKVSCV

Q: With CCCC[C@@H]1NC(=O)[C@H](Cc2ccc(O)cc2)NC(=O)[C@@](C)(NC(=O)[C@H](Cc2ccc(O)cc2)NC(=O)[C@@H](N)C(C)C)CCC/C=C\CCC[C@@](C)(C(=O)N[C@H](C(=O)N[C@@H](CC(C)C)C(=O)N[C@@H](Cc2c[nH]c3ccccc23)C(N)=O)[C@@H](C)CC)NC1=O [Peptide 9] (H-VY[S5]Y[Nle][S5]ILW-NH2; staple (Z) 3-6) as the molecule, how does the “effect on NanoBiT luminescence (heteromer disruption)” value (5-HT2AR–CB1R heteromers) read?
A: neither the version lacking the TAT amino acid sequence, compound 9, nor the nonstaple, compound 11, peptides induced any change

Q: And the half-life at 55.5 μM ([1]; pH 7.5, Half-life (min), trypsin)?
A: 178 min

Q: What about the half-life at 55.5 μM ([2]; pH 7.5) of the same molecule?
A: 198 min

Q: And the “half-life in chymotrypsin as stated in text” value ([2]; pH 7.5)?
A: 5 to 6 h

Q: Which results are given for CCCC[C@@H]1NC(=O)[C@H](Cc2ccc(O)cc2)NC(=O)[C@@](C)(NC(=O)[C@H](Cc2ccc(O)cc2)NC(=O)[C@@H](N)C(C)C)CCCC=CCCC[C@@](C)(C(=O)N[C@@H](CC(C)C)C(=O)N[C@@H](Cc2c[nH]c3ccccc23)C(=O)NCC(=O)N[C@@H](CCCNC(=N)N)C(=O)N[C@@H](CCCCN)C(=O)N[C@@H](CCCCN)C(=O)N[C@@H](CCCNC(=N)N)C(=O)N[C@@H](CCCNC(=N)N)C(=O)N[C@@H](CCC(N)=O)C(=O)N[C@@H](CCCNC(=N)N)C(=O)N[C@@H](CCCNC(=N)N)C(=O)N[C@@H](CCCNC(=N)N)C(N)=O)NC(=O)[C@H](Cc2ccc(O)cc2)NC1=O [Peptide 10] (H-VY[S5]Y[Nle]Y[S5]LWGRKKRRQRRR-NH2; staple 3-7)?
A: half-life at 11.1 μM (Stability in mouse serum): 11.7 h; half-life at 55.5 μM ([1]; 55.5 μM peptide, 0.55 μg/ml trypsin from porcine pancreas, ammonium bicarbonate buffer pH 7.5, 37 °C, 15–480 min, intact peptide by RP-HPLC (Fmoc-Gly internal standard), n = 3, nonlinear regression fit, read-out: Half-life (min), trypsin): 75 min; enhancement in trypsin resistance (half-life) over control peptides ([1]; versus TM7-TAT, TM6-TAT and TM5-TAT control peptides, trypsin 0.55 μg/ml): 2–3 fold; half-life at 55.5 μM ([2]; 55.5 μM peptide, 0.55 μg/ml α-chymotrypsin from bovine pancreas, ammonium bicarbonate buffer pH 7.5, 37 °C, 15–480 min, intact peptide by RP-HPLC, n = 3, nonlinear regression fit, read-out: Half-life (min), α-chymotrypsin): 63 min; chymotrypsin resistance improvement over full-length TM-TAT peptides ([2]; versus full-length TM7-TAT, TM6-TAT and TM5-TAT): ~2 fold
